According to patent US20170355708A1, “POTASSIUM CHANNEL MODULATORS” (Cadent Therapeutics, Inc., priority 2016, published 2017):

Target: T1, hSK2 channels (Homo sapiens, UniProt P0DP23+Q9H2S1)
T1 construct: expressed in transfected cells; host or cells: HEK293
Experiment: Whole-cell patch-clamp recording of SK2 channel current (SC100)
Format: cell-based
Settings: Stimulating Concentration required for increasing the baseline current by 100%; HEK293 cells expressing hSK2; Table 3
Procedure: The biological activity of certain compounds were determined as follows. The ionic current through small-conductance Ca^2+-activated K^+ channels (SK channels, subtype 2) is recorded using the whole-cell configuration of the patch-clamp technique in a classic patch-clamp set-up using HEK293 tissue culture cells expressing hSK2 channels as described in Kasumu et. al., Chemistry & Biology 19, 1340-1353, Oct. 26, 2012.
The SC100 value determined is defined as the Stimulating Concentration required for increasing the baseline current by 100%.

| Compound | SC100 uM |
| --- | --- |
| Cc1cc(C)n(-c2nc(Nc3ccc(F)cc3F)cc(N3CCNC(C(N)=O)C3)n2)n1 (stereo not shown) [Compound 115, 4-(6-((2,4-difluorophenyl)amino)-2-(3,5-dimethyl-1H-pyrazol-1-yl)pyrimidin-4-yl)piperazine-2-carboxamide] | ++ (++ means 200 nM-1000 nM) |
| Cc1cc(C)n(-c2nc(Nc3ccc(F)c(F)c3)cc(N3CCOC(CO)C3)n2)n1 (stereo not shown) [Compound 117, (4-(6-((3,4-difluorophenyl)amino)-2-(3,5-dimethyl-1H-pyrazol-1-yl)pyrimidin-4-yl)morpholin-2-yl)methanol] | +++ (+++ means <200 nM) |
| Cc1cc(C)n(-c2nc(Nc3ccc(F)c(F)c3)cc(N3CCOC(C(N)=O)C3)n2)n1 (stereo not shown) [Compound 127, 4-(6-((3,4-difluorophenyl)amino)-2-(3,5-dimethyl-1H-pyrazol-1-yl)pyrimidin-4-yl)morpholine-2-carboxamide] | + (+ means >1 uM) |
| Cc1cc(Nc2ccc(Cl)c(C(F)(F)F)c2)nc(-n2ccc(C)n2)n1 [Compound 136, N-(4-chloro-3-(trifluoromethyl)phenyl)-6-methyl-2-(3-methyl-1H-pyrazol-1-yl)pyrimidin-4-amine] | +++ (+++ means <200 nM) |
| Cc1cc(Nc2ccc(F)cc2)nc(-n2ccc(CO)n2)n1 [Compound 137, (1-(4-((4-fluorophenyl)amino)-6-methylpyrimidin-2-yl)-1H-pyrazol-3-yl)methanol] | + (+ means >1 uM) |
| Cc1cc(Nc2ccc(F)cc2)nc(-n2ccc(C(C)(C)O)n2)n1 [Compound 138, 2-(1-(4-((4-fluorophenyl)amino)-6-methylpyrimidin-2-yl)-1H-pyrazol-3-yl)propan-2-ol] | + (+ means >1 uM) |
| Cc1cc(Nc2ccc(F)cc2)nc(-n2ccc(C(C)O)n2)n1 (stereo not shown) [Compound 140, 1-(1-(4-((4-fluorophenyl)amino)-6-methylpyrimidin-2-yl)-1H-pyrazol-3-yl)ethan-1-ol] | + (+ means >1 uM) |
| Cc1cc(Nc2ccc(F)cc2)nc(-n2ccc(CF)n2)n1 [Compound 141, 2-(3-(fluoromethyl)-1H-pyrazol-1-yl)-N-(4-fluorophenyl)-6-methylpyrimidin-4-amine] | ++ (++ means 200 nM-1000 nM) |
| N#Cc1ccn(-c2nc(Nc3ccc(Cl)cc3)cc(N3CC4(COC4)C3)n2)n1 [Compound 143, 1-(4-((4-chlorophenyl)amino)-6-(2-oxa-6-azaspiro[3.3]heptan-6-yl)pyrimidin-2-yl)-1h-pyrazole-3-carbonitrile] | ++ (++ means 200 nM-1000 nM) |
| CC(O)c1ccn(-c2nc(Nc3ccc(F)cc3)cc(N3CCOCC3)n2)n1 (stereo not shown) [Compound 146, 1-(1-(4-((4-fluorophenyl)amino)-6-morpholinopyrimidin-2-yl)-1H-pyrazol-3-yl)ethan-1-ol] | + (+ means >1 uM) |
| CC(C)(O)c1ccn(-c2nc(Nc3ccc(Cl)cc3)cc(N3CC4(COC4)C3)n2)n1 [Compound 147, 2-(1-(4-((4-chlorophenyl)amino)-6-(2-oxa-6-azaspiro [3.3]heptan-6-yl)pyrimidin-2-yl)-1H-pyrazol-3-yl)propan-2-ol] | ++ (++ means 200 nM-1000 nM) |
| CC(C)(O)c1ccn(-c2nc(Nc3ccc(F)cc3)cc(N3CCOCC3)n2)n1 [Compound 148, 2-(1-(4-((4-fluorophenyl)amino)-6-morpholinopyrimidin-2-yl)-1H-pyrazol-3-yl)propan-2-ol] | + (+ means >1 uM) |
| OCc1ccn(-c2nc(Nc3ccc(Cl)cc3)cc(N3CCOCC3)n2)n1 [Compound 149, (1-(4-((4-chlorophenyl)amino)-6-morpholinopyrimidin-2-yl)-1H-pyrazol-3-yl)methanol] | ++ (++ means 200 nM-1000 nM) |
| CC(O)c1ccn(-c2nc(Nc3ccc(Cl)cc3)cc(N3CC4(COC4)C3)n2)n1 (stereo not shown) [Compound 150, 1-(1-(4-((4-chlorophenyl)amino)-6-(2-oxa-6-azaspiro[3.3]heptan-6-yl)pyrimidin-2-yl)-1H-pyrazol-3-yl)ethan-1-ol] | ++ (++ means 200 nM-1000 nM) |
| FCc1ccn(-c2nc(Nc3ccc(Cl)cc3)cc(N3CCOCC3)n2)n1 [Compound 151, N-(4-chlorophenyl)-2-(3-(fluoromethyl)-1H-pyrazol-1-yl)-6-morpholinopyrimidin-4-amine] | ++ (++ means 200 nM-1000 nM) |
| CC(F)c1ccn(-c2nc(Nc3ccc(Cl)cc3)cc(N3CC4(COC4)C3)n2)n1 (stereo not shown) [Compound 152, N-(4-chlorophenyl)-2-(3-(1-fluoroethyl)-1H-pyrazol-1-yl)-6-(2-oxa-6-azaspiro[3.3]heptan-6-yl)pyrimidin-4-amine] | +++ (+++ means <200 nM) |
| CC(O)c1ccn(-c2nc(Nc3ccc(F)cc3)cc(N3CC4(COC4)C3)n2)n1 (stereo not shown) [Compound 153, 1-(1-(4-((4-fluorophenyl)amino)-6-(2-oxa-6-azaspiro[3.3]heptan-6-yl)pyrimidin-2-yl)-1H-pyrazol-3-yl)ethan-1-ol] | + (+ means >1 uM) |
| FC(F)c1ccn(-c2nc(Nc3ccc(Cl)cc3)cc(N3CCOCC3)n2)n1 [Compound 154, N-(4-chlorophenyl)-2-(3-(difluoromethyl)-1H-pyrazol-1-yl)-6-morpholinopyrimidin-4-amine] | ++ (++ means 200 nM-1000 nM) |
| CC(C)(O)c1ccn(-c2nc(Nc3ccc(F)cc3)cc(N3CC4(COC4)C3)n2)n1 [Compound 155, 2-(1-(4-((4-fluorophenyl)amino)-6-(2-oxa-6-azaspiro[3.3]heptan-6-yl)pyrimidin-2-yl)-1H-pyrazol-3-yl)propan-2-ol] | + (+ means >1 uM) |
| OCc1ccn(-c2nc(Nc3ccc(F)cc3)cc(N3CCOCC3)n2)n1 [Compound 156, (1-(4-((4-fluorophenyl)amino)-6-morpholinopyrimidin-2-yl)-1H-pyrazol-3-yl)methanol] | + (+ means >1 uM) |
| FCc1ccn(-c2nc(Nc3ccc(F)cc3)cc(N3CCOCC3)n2)n1 [Compound 157, 2-(3-(fluoromethyl)-1H-pyrazol-1-yl)-N-(4-fluorophenyl)-6-morpholinopyrimidin-4-amine] | ++ (++ means 200 nM-1000 nM) |
| Fc1ccc(Nc2cc(N3CCOCC3)nc(-n3ccc(C(F)F)n3)n2)cc1 [Compound 158, 2-(3-(difluoromethyl)-1H-pyrazol-1-yl)-N-(4-fluorophenyl)-6-morpholinopyrimidin-4-amine] | +++ (+++ means <200 nM) |

The remaining lines, values ahead:

| SC100 uM | Compound |
| --- | --- |
| ++ (++ means 200 nM-1000 nM) | Cc1cc(C)n(-c2nc(Nc3ccc(Cl)cc3)cc(NC(C)C(N)=O)n2)n1 (stereo not shown) [Compound 114, 2-((6-((4-chlorophenyl)amino)-2-(3,5-dimethyl-1H-pyrazol-1-yl)pyrimidin-4-yl)amino)propanamide] |
| +++ (+++ means <200 nM) | Cc1cc(C)n(-c2cc(N3CCNC(C(N)=O)C3)nc(Nc3ccc(F)c(F)c3)n2)n1 (stereo not shown) [Compound 116, 4-(2-((3,4-difluorophenyl)amino)-6-(3,5-dimethyl-1H-pyrazol-1-yl)pyrimidin-4-yl)piperazine-2-carboxamide] |
| +++ (+++ means <200 nM) | Cc1cc(C)n(-c2nc(Nc3ccc(Cl)cc3)nc3c2ncn3C(C)C)n1 [Compound 118, N-(4-chlorophenyl)-6-(3,5-dimethyl-1H-pyrazol-1-yl)-9-isopropyl-9H-purin-2-amine] |
| + (+ means >1 uM) | CCn1cnc2c(-n3nc(C)cc3C)nc(Nc3ccc(F)c(F)c3)cc21 [Compound 120, N-(3,4-difluorophenyl)-4-(3,5-dimethyl-1H-pyrazol-1-yl)-1-ethyl-1H-imidazo[4,5-c]pyridin-6-amine] |
| ++ (++ means 200 nM-1000 nM) | Cc1cc(C)n(-c2nc(Nc3ccc(F)c(F)c3)cc(NC(C)C(N)=O)n2)n1 (stereo not shown) [Compound 126, 2-((6-((3,4-difluorophenyl)amino)-2-(3,5-dimethyl-1H-pyrazol-1-yl)pyrimidin-4-yl)amino)propanamide] |
| ++ (++ means 200 nM-1000 nM) | Cc1cc(C)n(-c2nc(Nc3ccc(Cl)cc3)nc3c2ncn3CC#N)n1 [Compound 130, 2-(2-((4-chlorophenyl)amino)-6-(3,5-dimethyl-1H-pyrazol-1-yl)-9H-purin-9-yl)acetonitrile] |
| + (+ means >1 uM) | Cc1cc(C)n(-c2nc(Nc3ccc(Cl)cc3)nc3c2ncn3CCN)n1 [Compound 133, 9-(2-aminoethyl)-N-(4-chlorophenyl)-6-(3,5-dimethyl-1H-pyrazol-1-yl)-9H-purin-2-amine] |
| ++ (++ means 200 nM-1000 nM) | Cc1cc(C)n(-c2nc(Nc3ccc(F)c(F)c3)cc(NC3C4CN(Cc5ccccc5)CC43)n2)n1 (stereo not shown) [Compound 134, N4-(3-benzyl-3-azabicyclo[3.1.0]hexan-6-yl)-N6-(3,4-difluorophenyl)-2-(3,5-dimethyl-1H-pyrazol-1-yl)pyrimidine-4,6-diamine] |
| ++ (++ means 200 nM-1000 nM) | Cc1cc(C)n(-c2nc(Nc3ccc(Cl)cc3)nc3c2ncn3CCO)n1 [Compound 135, 2-(2-((4-chlorophenyl)amino)-6-(3,5-dimethyl-1H-pyrazol-1-yl)-9H-purin-9-yl)ethan-1-ol] |
| ++ (++ means 200 nM-1000 nM) | Cc1cc(Nc2ccc(Cl)cc2)nc(-n2ccc(C(C)(C)O)n2)n1 [Compound 142, 2-(1-(4-((4-chlorophenyl)amino)-6-methylpyrimidin-2-yl)-1H-pyrazol-3-yl)propan-2-ol] |
| + (+ means >1 uM) | Cc1cc(C)n(-c2cc3ccn(C)c3c(Nc3ccc(Cl)cc3)n2)n1 [Compound 144, N-(4-chlorophenyl)-5-(3,5-dimethyl-1H-pyrazol-1-yl)-1-methyl-1H-pyrrolo [2,3-c]pyridin-7-amine] |
| ++ (++ means 200 nM-1000 nM) | Cc1cc(Nc2ccc(Cl)cc2)nc(-n2ccc(C(C)(C)O)n2)c1 [Compound 145, 2-(1-(6-((4-chlorophenyl)amino)-4-methylpyridin-2-yl)-1H-pyrazol-3-yl)propan-2-ol] |
